The target in one test is T1, HA1 adenosine receptor (Homo sapiens, UniProt P30542).
T1 sequence (P30542 1-326): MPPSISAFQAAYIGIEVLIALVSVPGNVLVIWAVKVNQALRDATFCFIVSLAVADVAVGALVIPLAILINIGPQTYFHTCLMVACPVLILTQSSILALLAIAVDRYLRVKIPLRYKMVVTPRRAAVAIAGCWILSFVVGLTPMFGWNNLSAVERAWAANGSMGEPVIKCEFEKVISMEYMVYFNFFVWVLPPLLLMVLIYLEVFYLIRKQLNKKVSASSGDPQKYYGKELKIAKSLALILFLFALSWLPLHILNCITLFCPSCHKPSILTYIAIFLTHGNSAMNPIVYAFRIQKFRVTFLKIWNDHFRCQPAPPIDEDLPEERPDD
Description: Human adenosine A1 receptor affinity (Ki hA1). Format: binding. To be noted: affinity to human adenosine A1 receptor.

For test [1], the target named is T2, human adenosine A2A receptor (Homo sapiens, UniProt P29274).
T2 construct: expressed in transfected cells; host or cells: CHO cells, Semliki Forest virus expression system; membrane preparation
Description: Human adenosine A2A receptor [3H]-SCH-58261 binding assay. The conditions noted are these: for Ki: affinity to human adenosine A2A receptor, read-out: Ki HA2A; for selectivity (A1/A2a): calculated ratio of the affinity to the HA1 receptor to the HA2a receptor.

Results on 21 molecules are retold here after patent US6506772B1, “Substituted [1,2,4]triazolo[1,5a]pyridine derivatives with activity as adenosine receptor ligands” (Hoffmann-La Roche Inc., priority 2000, dated 2003).

Molecules are shown by their SMILES.

T2 sequence (P29274 whole entry): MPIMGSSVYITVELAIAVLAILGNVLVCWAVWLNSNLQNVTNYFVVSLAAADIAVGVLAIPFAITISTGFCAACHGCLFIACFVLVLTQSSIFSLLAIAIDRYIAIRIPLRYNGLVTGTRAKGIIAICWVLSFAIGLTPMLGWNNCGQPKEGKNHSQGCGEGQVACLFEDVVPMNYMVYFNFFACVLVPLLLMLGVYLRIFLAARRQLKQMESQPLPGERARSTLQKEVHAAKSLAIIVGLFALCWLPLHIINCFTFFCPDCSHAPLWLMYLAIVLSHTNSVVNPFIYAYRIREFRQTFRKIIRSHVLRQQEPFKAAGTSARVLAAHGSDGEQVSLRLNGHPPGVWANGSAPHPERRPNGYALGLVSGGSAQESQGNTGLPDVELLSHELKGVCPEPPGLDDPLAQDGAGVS

`Nc1cc(C(=O)N2CCCC2)cc2nc(-c3ccoc3)nn12` [Example 99, (5-Amino-2-furan-3-yl-[1,2,4]triazolo[1,5-a]pyridin-7-yl)-pyrrolidin-1-yl-methanone]: the Ki on HA1 adenosine receptor was determined as 6100 nM. Also, in test [1], the Ki came out at 233 nM and the “selectivity (A1/A2a)” value is on record as 26.2.
In the same order, the values of `Cc1ccc(-c2nc3cc(C(=O)N(C)C4CCCCC4)cc(N)n3n2)o1` [Example 100, 5-Amino-2-(5-methyl-furan-2-yl)-[1,2,4]triazolo[1,5-a]pyridine-7-carboxylic acid cyclohexyl-methyl-amide] are 529 nM, 15.5 nM and 34.1.
The like results for `CCN(CC)C(=O)c1cc(N)n2nc(-c3ccccc3O)nc2c1` [Example 101, 5-Amino-2-(2-hydroxy-phenyl)-[1,2,4]triazolo[1,5-a]pyridine-7-carboxylic acid diethylamide] were, in that order, 701 nM, 33.3 nM and 21.1.
The like results for `Nc1cc(C(=O)N2CCCCC2)cc2nc(-c3ccccc3O)nn12` [Example 102, [5-Amino-2-(2-hydroxy-phenyl)-[1,2,4]triazolo[1,5-a]pyridin-7-yl]-piperidin-1-yl-methanone] were, in that order, 978 nM, 57.6 nM and 17.0.
At HA1 adenosine receptor, `Nc1cc(C(=O)N2CCCCC2)cc2nc(-c3nccs3)nn12` [Example 103, (5-Amino-2-thiazol-2-yl-[1,2,4]triazolo[1,5-a]pyridin-7-yl)-piperidin-1-yl-methanone] came in with a Ki of 3530 nM. Also, in test [1], the Ki came to 101 nM and the “selectivity (A1/A2a)” value is 35.1.
The like results for `CCCCNC(=O)c1cc(N)n2nc(-c3ccco3)nc2c1` [Example 104, 5-Amino-2-furan-2-yl-[1,2,4]triazolo[1,5-a]pyridine-7-carboxylic acid butylamide] were, in that order, 223 nM, 4.9 nM and 46.0.
The like results for `CCN(CC)C(=O)c1cc(N)n2nc(-c3ccco3)nc2c1` [Example 105, 5-Amino-2-furan-2-yl-[1,2,4]triazolo[1,5-a]pyridine-7-carboxylic acid diethylamide] were, in that order, 2380 nM, 50.9 nM and 46.9.
The like results for `Nc1cc(C(=O)N2CCOCC2)cc2nc(-c3ccco3)nn12` [Example 108, (5-Amino-2-furan-2-yl-[1,2,4]triazolo[1,5-a]pyridin-7-yl)-morpholin-4-yl-methanone] were, in that order, 6200 nM, 299 nM and 20.7.
For `Nc1cc(C(=O)NCc2ccccc2Cl)cc2nc(-c3ccco3)nn12` [Example 109, 5-Amino-2-furan-2-yl-[1,2,4]triazolo[1,5-a]pyridine-7-carboxylic acid 2-chloro-benzylamide], the Ki at HA1 adenosine receptor is 58.7 nM. In addition, in test [1], the Ki came out at 2.9 nM and the “selectivity (A1/A2a)” value is given as 20.2.
The like results for `Nc1cc(C(=O)NCc2ccccc2Br)cc2nc(-c3ccco3)nn12` [Example 110, 5-Amino-2-furan-2-yl-[1,2,4]triazolo[1,5-a]pyridine-7-carboxylic acid 2-bromo-benzylamide] were, in that order, 64.2 nM, 2.6 nM and 24.5.
The like results for `COc1cc(CNC(=O)c2cc(N)n3nc(-c4ccco4)nc3c2)cc(OC)c1OC` [Example 111, 5-Amino-2-furan-2-yl-[1,2,4]triazolo[1,5-a]pyridine-7-carboxylic acid 3,4,5-trimethoxy-benzylamide] were, in that order, 1220 nM, 45.2 nM and 27.1.
In the same order, the values of `COc1cc(CNC(=O)c2cc(N)n3nc(-c4ccc(C)o4)nc3c2)cc(OC)c1OC` [Example 112, 5-Amino-2-(5-methyl-furan-2-yl)-[1,2,4]triazolo[1,5-a]pyridine-7-carboxylic acid 3,4,5-trimethoxy-benzylamide] are 2440 nM, 147 nM and 16.6.
Regarding `Cc1ccc(-c2nc3cc(C(=O)N(C)C4CCCCC4)cc(N)n3n2)s1` [Example 113, 5-Amino-2-(5-methyl-thiophen-2-yl)-[1,2,4]triazolo[1,5-a]pyridine-7-carboxylic acid cyclohexyl-methyl-amide], the Ki came to 307 nM on HA1 adenosine receptor and 17.2 nM in test [1]. The “selectivity (A1/A2a)” value in test [1] is on record as 17.8.
In the same order, the values of `Cc1ccc(-c2nc3cc(C(=O)N4CCCCC4)cc(N)n3n2)s1` [Example 114, [5-Amino-2-(5-methyl-thiophen-2-yl)-[1,2,4]triazolo[1,5-a]pyridin-7-yl]-piperidin-1-yl-methanone] are 772 nM, 28.3 nM and 27.3.
The like results for `Cc1ccc(-c2nc3cc(C(=O)N4CCOCC4)cc(N)n3n2)s1` [Example 115, [5-Amino-2-(5-methyl-thiophen-2-yl)-[1,2,4]triazolo[1,5-a]pyridin-7-yl]-morpholin-4-yl-methanone] were, in that order, 2920 nM, 222 nM and 13.2.
In the same order, the values of `Cc1ccc(-c2nc3cc(C(=O)N(C)Cc4ccccc4)cc(N)n3n2)s1` [Example 116, 5-Amino-2-(5-methyl-thiophen-2-yl)-[1,2,4]triazolo[1,5-a]pyridine-7-carboxylic acid benzyl-methyl-amide] are 170 nM, 15.3 nM and 11.1.
For `Cc1ccc(-c2nc3cc(C(=O)N(Cc4ccccc4)C(C)C)cc(N)n3n2)s1` [Example 117, 5-Amino-2-(5-methyl-thiophen-2-yl)-[1,2,4]triazolo[1,5-a]pyridine-7-carboxylic acid benzyl-isopropyl-amide], the results for the Ki (at HA1 adenosine receptor; in test [1]) were 178 nM and 9.2 nM, respectively. Also, the “selectivity (A1/A2a)” value in test [1] is 19.2.
The like results for `Nc1cc(C(=O)N2CCCC2)cc2nc(-c3ccccc3O)nn12` [Example 118, [5-Amino-2-(2-hydroxy-phenyl)-[1,2,4]triazolo[1,5-a]pyridin-7-yl]-pyrrolidin-1-yl-methanone] were, in that order, 1960 nM, 126 nM and 15.5.
The like results for `CCCCNC(=O)c1cc(N)n2nc(-c3nccs3)nc2c1` [Example 119, 5-Amino-2-thiazol-2-yl-[1,2,4]triazolo[1,5-a]pyridine-7-carboxylic acid butylamide] were, in that order, 429 nM, 17.1 nM and 25.0.
In the same order, the values of `CCN(CC)C(=O)c1cc(N)n2nc(-c3nccs3)nc2c1` [Example 120, 5-Amino-2-thiazol-2-yl-[1,2,4]triazolo[1,5-a]pyridine-7-carboxylic acid diethylamide] are 2740 nM, 77.4 nM and 35.4.
For `CC(C)N(Cc1ccccc1)C(=O)c1cc(N)n2nc(-c3ccccc3O)nc2c1` [Example 121, 5-Amino-2-(2-hydroxy-phenyl)-[1,2,4]triazolo[1,5-a]pyridine-7-carboxylic acid benzyl-isopropyl-amide], on HA1 adenosine receptor, the Ki worked out at 204 nM. For the same molecule, in test [1], the Ki is 17 nM and the “selectivity (A1/A2a)” value was 12.0.

What is called Ki is the dissociation constant of the complex between target and ligand, obtained from inhibition or displacement.
